Measurements from US6730495B2, “Methods for the identification of antimicrobial compounds” (Mycologics, Inc., priority 2001, dated 2004).

Columns and labels:
ketol-isomerase [1] = molecular target: T1, ketol-isomerase (Candida albicans, UniProt P53704); details: C. albicans strain ATCC No. 10261 crude cell extracts; Milewski et al., J. Biol. Chem., 274:4000-4008 [1999]; read-out: IC50, inhibition of ketol-isomerase activity; cited from earlier work
T1 construct: ketol-isomerase activity in crude cell extract of Candida albicans ATCC10261 yeast-like cells; host or cells: Candida albicans ATCC 10261 crude cell extract

ketol-isomerase [2] = molecular target: ketol-isomerase (Aspergillus fumigatus, UniProt E9R5E2); experiment: nitro BT ketol-isomerase inhibition assay with crude A. fumigatus cell extract; assay type: biochemical; details: UDP-GlcNAc 0 to 10 mM
Procedure: Briefly, in this experiment, a series of ketol-isomerase reactions were analyzed in parallel, wherein each reaction mixture contained Fru-6-P, glutamine, and crude A. fumigatus cell extract (as described in Example 3). In addition, reactions also contained various concentrations of UDP-GlcNAc, ranging from 0 to 10 mM. Reactions were incubated at 37° C. for 60 minutes, after which time the ketol-isomerase reactions were terminated by heating at 70° C. for 15 min. However, the ketol-isomerase reaction can also be terminated by boiling for 5 minutes. In addition, the ketol-isomerase reaction can be clarified following the inactivation step by centrifugation or filtration.
Following arrest of the ketol-isomerase reaction, the necessary reagents for the nitro BT reaction were added to each reaction mixture, including glutamate dehydrogenase enzyme and molar excesses of β-NAD, PMS, and nitro BT. After incubation at 37° C. for 90 minutes, the color development was quantitated by measurement of OD585 nm. […]
In this experiment, 50 μL aliquots of a ketol-isomerase reaction mixture containing 10 mM Fru-6-P, 10 mM Gln, 0.3 mg/mL crude A. fumigatus extract, and various concentrations of UDP-GlcNAc were incubated at 37° C. for 60 minutes. […] After incubation at 37° C. for 90 minutes, the color development was quantitated by OD585 nm.

T1 sequence (P53704 2-713): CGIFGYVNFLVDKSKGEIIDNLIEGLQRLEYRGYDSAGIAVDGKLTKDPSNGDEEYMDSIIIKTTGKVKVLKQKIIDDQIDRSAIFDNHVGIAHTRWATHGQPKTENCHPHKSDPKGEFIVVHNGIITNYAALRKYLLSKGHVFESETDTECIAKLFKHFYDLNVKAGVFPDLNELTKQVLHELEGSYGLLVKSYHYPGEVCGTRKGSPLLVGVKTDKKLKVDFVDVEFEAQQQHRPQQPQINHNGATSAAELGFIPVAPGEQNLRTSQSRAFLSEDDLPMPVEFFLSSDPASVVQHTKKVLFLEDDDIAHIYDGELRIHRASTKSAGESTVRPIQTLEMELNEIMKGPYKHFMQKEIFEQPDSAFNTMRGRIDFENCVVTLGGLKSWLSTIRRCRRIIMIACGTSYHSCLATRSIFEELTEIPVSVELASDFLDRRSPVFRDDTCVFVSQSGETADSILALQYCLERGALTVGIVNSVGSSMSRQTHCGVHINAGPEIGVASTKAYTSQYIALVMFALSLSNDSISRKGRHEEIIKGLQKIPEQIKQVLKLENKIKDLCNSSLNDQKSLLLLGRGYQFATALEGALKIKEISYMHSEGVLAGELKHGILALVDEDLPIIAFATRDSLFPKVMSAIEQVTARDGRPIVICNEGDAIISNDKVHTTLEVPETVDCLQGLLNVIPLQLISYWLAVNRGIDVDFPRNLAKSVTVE
ketol-isomerase (Aspergillus fumigatus, UniProt E9R5E2), sequence (E9R5E2 entry or part of it): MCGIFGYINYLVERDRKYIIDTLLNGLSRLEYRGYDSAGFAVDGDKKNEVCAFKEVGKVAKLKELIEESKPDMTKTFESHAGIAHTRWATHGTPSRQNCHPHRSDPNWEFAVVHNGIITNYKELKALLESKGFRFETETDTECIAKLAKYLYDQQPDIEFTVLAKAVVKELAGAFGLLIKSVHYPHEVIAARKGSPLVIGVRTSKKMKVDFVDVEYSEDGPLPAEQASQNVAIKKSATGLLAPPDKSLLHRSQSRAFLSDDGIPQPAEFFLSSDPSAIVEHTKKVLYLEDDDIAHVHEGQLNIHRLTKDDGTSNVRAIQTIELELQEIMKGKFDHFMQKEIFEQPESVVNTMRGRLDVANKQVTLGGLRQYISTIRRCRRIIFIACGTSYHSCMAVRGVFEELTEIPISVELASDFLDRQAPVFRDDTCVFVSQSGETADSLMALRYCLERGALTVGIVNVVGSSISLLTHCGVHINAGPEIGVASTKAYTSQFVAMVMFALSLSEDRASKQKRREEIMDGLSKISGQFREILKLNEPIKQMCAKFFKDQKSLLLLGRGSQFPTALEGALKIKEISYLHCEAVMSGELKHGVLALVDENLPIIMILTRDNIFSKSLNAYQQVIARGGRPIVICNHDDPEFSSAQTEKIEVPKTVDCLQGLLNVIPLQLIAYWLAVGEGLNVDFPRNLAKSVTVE

CC(=O)N[C@H]1[C@@H](OP(=O)(O)OP(=O)(O)OC[C@H]2O[C@@H](n3ccc(=O)[nH]c3=O)[C@H](O)[C@@H]2O)O[C@H](CO)[C@@H](O)[C@@H]1O [UDP-GlcNAc, UDP-N-acetylglucosamine]
IC50 (ketol-isomerase [1]): 690 µM | inhibition of ketol-isomerase activity in A. fumigatus crude extract (FIG. 5) (ketol-isomerase [2]): inhibited by UDP-GlcNAc in a dose-dependent manner
